{
  "source": "patent US20090306452A1",
  "about": "“APPARATUS FOR TREATING A CONTAMINATED MEDIA WITH A SORBENT” (priority 2008, published 2009)",
  "origin": "cited, not measured here",
  "data": [
    {"details": "log10 of concentration in octanol / concentration in water; examples of hydrophobic hazardous materials", "values": [
      {"compound": "hexafluoromethane", "Log P": "about 2"},
      {"compound": "c1ccc2c(c1)Oc1ccccc1O2", "note": "[dibenzo (1,4) dioxin]", "Log P": "about 4"},
      {"compound": "Clc1cc2oc3c(Cl)cc(Cl)c(Cl)c3c2c(Cl)c1Cl", "note": "[1,2,3,6,8,9-hexachloro-dibenzofuran]", "Log P": "about 7"},
      {"compound": "Clc1cc(Cl)cc(C2(CC(Cl)(Cl)Cl)CO2)c1", "note": "(stereo not shown) [2-(3,5-dichlorophenyl)-2-(2,2,2-trichloroethyl) oxirane]", "Log P": "about 4"}
    ]}
  ]
}
